Experimental data as given in patent US10071994B2, “N-sulfonyl homoserine lactone derivatives, preparation method and use thereof” (priority 2014, dated 2018).

tested on: C. violaceum CV026; test: Preliminary screening of bacterial quorum sensing regulatory (agonistic/inhibitory) activity on LB plate; type: cell-based, Chromobacterium violaceum; conditions: 1 μl of 0.065M DMSO solution spotted on LB plate with C. violaceum CV026, 30° C., 16-18 h; agonist: purple induced; inhibitor: white circle in presence of inducer C6-HSL
Protocol: 1.1 Preparation work: compounds to be tested (Compounds 1-32 prepared in Example 1-32 and Intermediates 1-3) were weighed and then separately dissolved in 200 μl DMSO (dimethyl sulfoxide) to prepare a solution at a concentration of 0.065M. 5.0 mg inducer, N-hexanoyl homoserine lactone (C6—HSL, purchased from Sigma Company) was weighed and dissolved in 200 μl DMSO (at a concentration of 0.125M), the compounds and the inducer were all stored at 4° C. for further use. C. violaceum CV026 (donated by Professor McLean J C from Texas State University, the bacterium is the Tn-5 mutant of the wild type Chromobacterium violaceum ATCC31532; see Latifi, A., et al., Mol. Microbiol, 17, 333-343(1995) and Winson, M. K., et al., Proc. Natl. Acad. Sci. USA, 92, 9427-9431(1995)) was cultured under shaking in a shaker at 30° C., 200 rpm.
1.2 Method for preliminary screening of compounds having agonistic activity: 400 μl C. violaceum CV026 was added to 5 ml melted semi-solid LB culture medium (1% tryptone, 1% NaCl, and 0.5% yeast extract), and mixed homogeneously; the mixed culture medium was poured into a solid LB plate; when the mixed culture medium was solidified on the plate; 1 μl sample of the dissolved compound to be tested (Compounds 1-32 in Examples 1-32) was spotted on the plate; when the sample was dried in air, the plate was put in a 30° C. oven upside down and cultured for a period of 16-18 h. The agonistic activity of the compound was determined depending on whether purple strain was induced for C. violaceum CV026 on LB plate as well as the density of purple strain.
1.3 Method for preliminary screening of compounds having inhibitory activity: the inducer C6-HSL was diluted gradiently to 1000 times by means of 2-fold dilution; 15 μl of the diluted inducer and 400 μl C. violaceum CV026 in exponential phase were mixed homogeneously and then added to a 5 ml melted semi-solid LB culture medium; the mixture of inducer, C. violaceum, and semi-solid LB culture medium were poured onto a solid LB plate; when the mixture was solidified on the plate, 1 μl sample of the dissolved compound to be tested (Compounds 1-32 in Examples 1-32 and Intermediates 1-3) was spotted on the plate; when the sample was dried in air, the plate was put in a 30° C. oven upside down and was cultured for a period of 16-18 h. The inhibitory activity of a compound was preliminary determined depending on the size of the white circle appeared after C. violaceum CV026 was inhibited on LB plate.
It is found, after preliminary screening, that 17 compounds according to the invention have bacterial quorum sensing regulatory activity, and the screening result was shown in Table 1.

Structure (SMILES) | Regulatory activity (bacterial quorum sensing)
O=C(Nc1ccc(S(=O)(=O)N[C@H]2CCOC2=O)cc1)c1cccs1 [Compound 1, (s)-N-(4-(N-(2-oxotetrahydrofuran-3-yl)sulfamoyl)phenyl)thiophene-2-carboxamide] | −
O=C(Nc1ccc(S(=O)(=O)N[C@H]2CCOC2=O)cc1)c1ccsc1 [Compound 2, (s)-N-(4-(N-(2-oxotetrahydrofuran-3-yl)sulfamoyl)phenyl)thiophene-3-carboxamide] | −
O=C(Nc1ccc(S(=O)(=O)N[C@H]2CCOC2=O)cc1)c1ccc(Cl)s1 [Compound 3, (s)-5-chloro-N-(4-(N-(2-oxotetrahydrofuran-3-yl)sulfamoyl)phenyl)thiophene-2-carb oxamide] | −
O=C(Nc1ccc(S(=O)(=O)N[C@H]2CCOC2=O)cc1)c1ccc(Br)s1 [Compound 4, (s)-5-bromo-N-(4-(N-(2-oxotetrahydrofuran-3-yl)sulfamoyl)phenyl)thiophene-2-carb oxamide] | −
O=C(Nc1ccc(S(=O)(=O)N[C@H]2CCOC2=O)cc1)c1cc(Br)cs1 [Compound 6, (s)-4-bromo-N-(4-(N-(2-oxotetrahydrofuran-3-yl)sulfamoyl)phenyl)thiophene-2-carb oxamide] | −
Cc1csc(C(=O)Nc2ccc(S(=O)(=O)N[C@H]3CCOC3=O)cc2)c1 [Compound 7, (s)-4-methyl-N-(4-(N-(2-oxotetrahydrofuran-3-yl)sulfamoyl)phenyl)thiophene-2-carboxamide] | −
Cc1ccsc1C(=O)Nc1ccc(S(=O)(=O)N[C@H]2CCOC2=O)cc1 [Compound 8, (s)-3-methyl-N-(4-(N-(2-oxotetrahydrofuran-3-yl)sulfamoyl)phenyl)thiophene-2-carboxamide] | −
O=C(Nc1ccc(S(=O)(=O)N[C@H]2CCOC2=O)cc1)c1sccc1Cl [Compound 9, (s)-3-chloro-N-(4-(N-(2-oxotetrahydrofuran-3-yl)sulfamoyl)phenyl)thiophene-2-carb oxamide] | −
O=C(Nc1ccc(S(=O)(=O)N[C@H]2CCOC2=O)cc1)c1sccc1Br [Compound 10, (s)-3-bromo-N-(4-(N-(2-oxotetrahydrofuran-3-yl)sulfamoyl)phenyl)thiophene-2-carboxamide] | −
O=C(Nc1ccc(S(=O)(=O)N[C@H]2CCOC2=O)cc1)c1ccco1 [Compound 11, (s)-N-(4-(N-(2-oxotetrahydrofuran-3-yl)sulfamoyl)phenyl)furan-2-carboxamide] | ±
O=C(Nc1ccc(S(=O)(=O)N[C@H]2CCOC2=O)cc1)c1ccoc1 [Compound 12, (s)-N-(4-(N-(2-oxotetrahydrofuran-3-yl)sulfamoyl)phenyl)furan-3-carboxamide] | −
O=C(Nc1ccc(S(=O)(=O)N[C@H]2CCOC2=O)cc1)c1ccc([N+](=O)[O-])o1 [Compound 13, (s)-5-nitro-N-(4-(N-(2-oxotetrahydrofuran-3-yl)sulfamoyl)phenyl)furan-2-carboxamide] | −
Cc1occc1C(=O)Nc1ccc(S(=O)(=O)N[C@H]2CCOC2=O)cc1 [Compound 15, (s)-2-methyl-N-(4-(N-(2-oxotetrahydrofuran-3-yl)sulfamoyl)phenyl)furan-3-carboxamide] | −
O=C(Nc1ccc(S(=O)(=O)NC2CCOC2=O)cc1)c1ccc[nH]1 (stereo not shown) [Compound 17, (s)-1H—N-(4-(N-(2-oxotetrahydrofuran-3-yl)sulfamoyl)phenyl)pyrrole-2-carboxamide] | −
O=C(Cc1ccc(F)cc1)Nc1ccc(S(=O)(=O)N[C@H]2CCOC2=O)cc1 [Compound 20, (S)-4-fluoro-N-(4-(N-(2-oxotetrahydrofuran-3-yl)sulfamoyl)phenyl)benzeneacetamide] | −
O=C(Cc1ccc(Cl)cc1)Nc1ccc(S(=O)(=O)N[C@H]2CCOC2=O)cc1 [Compound 21, (S)-4-chloro-N-(4-(N-(2-oxotetrahydrofuran-3-yl)sulfamoyl)phenyl)benzeneacetamide] | −
O=C(Cc1ccccc1F)Nc1ccc(S(=O)(=O)N[C@H]2CCOC2=O)cc1 [Compound 27, (S)-2-fluoro-N-(4-(N-(2-oxotetrahydrofuran-3-yl)sulfamoyl)phenyl)benzeneacetamide] | +
Br.NC1CCOC1=O (stereo not shown) [Intermediate 1, (L)-homoserine lactone hydrobromide] | +
CC(=O)Nc1ccc(S(=O)(=O)N[C@H]2CCOC2=O)cc1 [Intermediate 2, (s)-N-(4-(N-(2-oxotetrahydrofuran-3-yl)sulfamoyl)phenyl)acetamide] | −

tested on: C. violaceum CV026; test: Measurement of IC50 of compounds having an inhibitory effect on C. violaceum quorum sensing (purple pigment absorbance at 585 nm); type: cell-based; conditions: Chromobacterium violaceum, CV026, read-out: IC50 of compounds having bacterial quorum sensing inhibitory activity
Protocol: 2. Measurement of IC50 of Compounds Having an Inhibitory Effect on C. violaceum Quorum Sensing
2.1 The wells of a 12-well plate were marked as initial concentration group, 2, 4, 8, 16, 32, 64, 128, and 256 fold diluted group, DMSO group, and a blank control group from left to right and from up to bottom, respectively.
2.2 The monoclonal C. violaceum CV026 grew on LB solid plate was cultured to exponential phase in a 5 ml fresh LB liquid culture medium, and 50 μl was then taken for seeding in a 5 ml LB culture medium, and cultured until the optical density OD value was about 1.0. The culture was then mixed homogeneously with LB culture medium at a ratio of 1:9 (at an OD of about 0.15), and added to a 12-well plate in an amount of 2 ml/well.
2.3 The compounds having quorum sensing inhibitory activity in preliminarily screening were dissolved in DMSO (at a concentration of 0.065M), respectively, and then 10 μl was taken into 10 μl DMSO solution for 2-fold dilution, and so on. Each compound was gradiently diluted to a highest fold of 256 (gradient dilution of 2, 4, 8, 16, 32, 64, 128, 256 fold).
2.4 To each well, 15 μl 1000-fold diluted inducer C6-HSL (initial concentration of 0.125M) and 8 μl compound solution at each diluted gradient was added; to the DMSO group, 8 μl DMSO was added; to the blank control group, 8 μl LB culture medium was added. Finally, it was ensured that 2 ml culture in each of the 12-well plate was mixed homogeneously.
2.5 The 12-well plate was placed in a 30° C. shaker at 130 rpm and cultured for 10-12 h.
2.6 After the culture was finished, 1 ml culture was taken from each well and put in a 1.5 ml EP tube and then centrifuged at 12000 rpm for 10 mins. The supernatant of the culture was sucked out, and 500 μl DMSO was added to each EP tube to dissolve the purple pigment in the culture. […] 200 μl supernatant pigment was put in a 96-well culture plate, and measured for absorbance value at 585 nm by a Microplate Reader. The absorbance value and the corresponding concentration were plotted to get the IC50 value.

Structure (SMILES) | IC50
Cc1ccsc1C(=O)Nc1ccc(S(=O)(=O)N[C@H]2CCOC2=O)cc1 [Compound 8, (s)-3-methyl-N-(4-(N-(2-oxotetrahydrofuran-3-yl)sulfamoyl)phenyl)thiophene-2-carboxamide] | 69.2 ± 1.42 µM
O=C(Nc1ccc(S(=O)(=O)N[C@H]2CCOC2=O)cc1)c1sccc1Cl [Compound 9, (s)-3-chloro-N-(4-(N-(2-oxotetrahydrofuran-3-yl)sulfamoyl)phenyl)thiophene-2-carb oxamide] | 9.19 ± 0.34 µM
O=C(Nc1ccc(S(=O)(=O)N[C@H]2CCOC2=O)cc1)c1sccc1Br [Compound 10, (s)-3-bromo-N-(4-(N-(2-oxotetrahydrofuran-3-yl)sulfamoyl)phenyl)thiophene-2-carboxamide] | 13.5 ± 0.54 µM
